In patent publication US9012489B2, “Phenyl-3-aza-bicyclo[3.1.0]hex-3-yl-methanones and the use thereof as medicament” (Boehringer Ingelheim International GmbH, priority 2011, dated 2015):
pIC50: −log10 of the molar value.

Molecular target: T1, GlyT1 transporter (Homo sapiens, UniProt P48067)
T1 construct: endogenously expressing the GlyT1 transporter; host or cells: SK-N-MC human neuroblastoma cells
T1 sequence (P48067 1-706): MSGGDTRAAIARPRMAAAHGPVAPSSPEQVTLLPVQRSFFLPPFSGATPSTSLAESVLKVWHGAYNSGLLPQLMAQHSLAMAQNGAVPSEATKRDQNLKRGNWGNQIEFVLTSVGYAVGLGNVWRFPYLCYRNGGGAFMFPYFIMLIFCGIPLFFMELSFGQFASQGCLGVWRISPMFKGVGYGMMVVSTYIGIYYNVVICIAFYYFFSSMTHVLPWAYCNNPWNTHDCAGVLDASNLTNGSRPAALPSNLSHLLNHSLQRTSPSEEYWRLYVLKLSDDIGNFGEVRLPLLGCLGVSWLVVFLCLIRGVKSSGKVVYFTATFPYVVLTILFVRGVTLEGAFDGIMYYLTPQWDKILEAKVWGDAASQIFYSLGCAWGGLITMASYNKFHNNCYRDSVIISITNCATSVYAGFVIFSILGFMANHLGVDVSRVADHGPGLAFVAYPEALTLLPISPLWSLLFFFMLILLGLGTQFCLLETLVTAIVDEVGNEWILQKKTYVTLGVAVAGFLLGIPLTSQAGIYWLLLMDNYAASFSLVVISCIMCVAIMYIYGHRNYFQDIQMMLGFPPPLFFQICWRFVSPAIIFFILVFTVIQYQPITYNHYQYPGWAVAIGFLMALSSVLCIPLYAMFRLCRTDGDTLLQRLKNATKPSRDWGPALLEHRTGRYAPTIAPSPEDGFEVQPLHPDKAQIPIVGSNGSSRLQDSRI
Assay: GlyT1 assay: 3H-glycine uptake into SK-N-MC cells (Cytostar-T format)
Format: cell-based
Conditions: glycine uptake in human SK-N-MC cells endogenously expressing GlyT1; 500 nM glycine, 1% DMSO, signal recorded over 60 min
Outline: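 Uptake slopes, measured over 60 min from the linear kinetic range, give IC50 from 8 compound concentrations, with 10 μM RG-1678 setting background. Substrate is 500 nM glycine (250 nM ³H, 250 nM unlabelled) in HBSS/5 mM alanine, 1% DMSO, after roughly 5-10 min compound preincubation. Cells: confluent SK-N-MC endogenously expressing human GlyT1.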

pIC50 | SMILES
7.47 | C[C@@H](Oc1ccc(S(C)(=O)=O)cc1C(=O)N1CC2CC2(c2nc(C(F)(F)F)no2)C1)C(F)(F)F (mixture of isomers) [Example 37, [5-Methanesulfonyl-2-(2,2,2-trifluoro-1-methyl-ethoxy)-phenyl]-[1-(3-trifluoromethyl-[1,2,4]oxadiazol-5-yl)-3-aza-bicyclo[3.1.0]hex-3-yl]-methanone]
5.54 | CCS(=O)(=O)c1ccc(O[C@H](C)C(F)(F)F)c(C(=O)N2CC3CC3(c3noc(C(F)(F)F)n3)C2)c1 (single isomer, unassigned) [Example 94, [5-Ethanesulfonyl-2-(2,2,2-trifluoro-1-methyl-ethoxy)-phenyl]-[1-(5-trifluoromethyl-[1,2,4]oxadiazol-3-yl)-3-aza-bicyclo[3.1.0]hex-3-yl]-methanone]
6.32 | Cc1nc(C23CC2CN(C(=O)c2cc(S(C)(=O)=O)ccc2O[C@@H](C)C(F)(F)F)C3)no1 (single isomer, unassigned) [Example 8, [5-Methanesulfonyl-2-(2,2,2-trifluoro-1-methyl-ethoxy)-phenyl]-[1-(5-methyl-[1,2,4]oxadiazol-3-yl)-3-aza-bicyclo[3.1.0]hex-3-yl]-methanone]
8.40 | C[C@@H](Oc1ccc(S(C)(=O)=O)cc1C(=O)N1CC2CC2(c2noc(C3CC3(F)F)n2)C1)C(F)(F)F (mixture of isomers) [Example 64, {1-[5-(2,2-Difluoro-cyclopropyl)-[1,2,4]oxadiazol-3-yl]-3-aza-bicyclo[3.1.0]hex-3-yl}-[5-methanesulfonyl-2-(2,2,2-trifluoro-1-methyl-ethoxy)-phenyl]-methanone]
8.05 | C[C@@H](Oc1ccc(S(C)(=O)=O)cc1C(=O)N1CC2CC2(c2nnc(C3(C(F)(F)F)CC3)o2)C1)C(F)(F)F (mixture of isomers) [Example 148, [5-Methanesulfonyl-2-(2,2,2-trifluoro-1-methyl-ethoxy)-phenyl]-{1-[5-(1-trifluoromethyl-cyclopropyl)-[1,3,4]oxadiazol-2-yl]-3-aza-bicyclo[3.1.0]hex-3-yl}-methanone]
7.77 | C[C@@H](Oc1ccc(S(C)(=O)=O)cc1C(=O)N1CC2CC2(c2nccc(C(F)(F)F)n2)C1)C(F)(F)F (mixture of isomers) [Example 72, [5-Methanesulfonyl-2-(2,2,2-trifluoro-1-methyl-ethoxy)-phenyl]-[1-(4-trifluoromethyl-pyrimidin-2-yl)-3-aza-bicyclo[3.1.0]hex-3-yl]-methanone]
7.68 | Cc1cnc(C23CC2CN(C(=O)c2cc(S(C)(=O)=O)ccc2O[C@@H](C)C(F)(F)F)C3)o1 (mixture of isomers) [Example 21, [5-Methanesulfonyl-2-(2,2,2-trifluoro-1-methyl-ethoxy)-phenyl]-[1-(5-methyl-oxazol-2-yl)-3-aza-bicyclo[3.1.0]hex-3-yl]-methanone]
7.89 | C[C@@H](Oc1ccc(S(C)(=O)=O)cc1C(=O)N1CC2CC2(c2nnc(C(F)(F)F)o2)C1)C(F)(F)F (single isomer, unassigned) [Example 123, [5-Methanesulfonyl-2-(2,2,2-trifluoro-1-methyl-ethoxy)-phenyl]-[1-(5-trifluoromethyl-[1,3,4]oxadiazol-2-yl)-3-aza-bicyclo[3.1.0]hex-3-yl]-methanone]
7.72 | C[C@@H](Oc1ccc(S(C)(=O)=O)cc1C(=O)N1CC2CC2(c2cc(C(F)(F)F)on2)C1)C(F)(F)F (mixture of isomers) [Example 49, [5-Methanesulfonyl-2-(2,2,2-trifluoro-1-methyl-ethoxy)-phenyl]-[1-(5-trifluoromethyl-isoxazol-3-yl)-3-aza-bicyclo[3.1.0]hex-3-yl]-methanone]
7.15 | C[C@H](Oc1ccc(S(C)(=O)=O)cc1C(=O)N1CC2CC2(c2cncc(C(F)(F)F)c2)C1)C(F)(F)F (mixture of isomers) [Example 53, [5-Methanesulfonyl-2-(2,2,2-trifluoro-1-methyl-ethoxy)-phenyl]-[1-(5-trifluoromethyl-pyridin-3-yl)-3-aza-bicyclo[3.1.0]hex-3-yl]-methanone]
6.11 | C[C@@H](Oc1ccc(S(C)(=O)=O)cc1C(=O)N1CC2CC2(c2coc(C3CC3)n2)C1)C(F)(F)F (single isomer, unassigned) [Example 82]
8.00 | C[C@H](Oc1ccc(S(C)(=O)=O)cc1C(=O)N1CC2CC2(c2noc(C3(C)COC3)n2)C1)C(F)(F)F (mixture of isomers) [Example 62, [5-Methanesulfonyl-2-(2,2,2-trifluoro-1-methyl-ethoxy)phenyl]-{1-[5-(3-methyl-oxetan-3-yl)-[1,2,4]oxadiazol-3-yl]-3-aza-bicyclo[3.1.0]hex-3-yl}-methanone]
8.30 | C[C@@H](Oc1ccc(S(C)(=O)=O)cc1C(=O)N1CC2CC2(c2nccc(C(F)(F)F)n2)C1)C(F)(F)F (single isomer, unassigned) [Example 19, [5-Methanesulfonyl-2-(2,2,2-trifluoro-1-methyl-ethoxy)-phenyl]-[1-(4-trifluoromethyl-pyrimidin-2-yl)-3-aza-bicyclo[3.1.0]hex-3-yl]-methanone]
7.59 | Cc1nc(C23CC2CN(C(=O)c2cc(S(C)(=O)=O)ccc2O[C@@H](C)C(F)(F)F)C3)co1 (mixture of isomers) [Example 32, [5-Methanesulfonyl-2-(2,2,2-trifluoro-1-methyl-ethoxy)-phenyl]-[1-(2-methyl-oxazol-4-yl)-3-aza-bicyclo[3.1.0]hex-3-yl]-methanone]
6.59 | CC(C)Oc1ccc(S(C)(=O)=O)cc1C(=O)N1CC2CC2(c2nc(C(F)(F)F)co2)C1 (single isomer, unassigned) [Example 111, (2-Isopropoxy-5-methanesulfonyl-phenyl)-[1-(4-trifluoromethyl-oxazol-2-yl)-3-aza-bicyclo[3.1.0]hex-3-yl]-methanone]
5.52 | CS(=O)(=O)c1ccc(O[C@@H]2CCOC2)c(C(=O)N2CC3CC3(c3noc(C(F)(F)F)n3)C2)c1 (single isomer, unassigned) [Example 140, [5-Methanesulfonyl-2-(tetrahydro-furan-3-yloxy)-phenyl]-[1-(5-trifluoromethyl-[1,2,4]oxadiazol-3-yl)-3-aza-bicyclo[3.1.0]hex-3-yl]-methanone]
8.10 | Cc1c(C23CC2CN(C(=O)c2cc(S(C)(=O)=O)ccc2O[C@H](C)C(F)(F)F)C3)noc1C(F)(F)F (mixture of isomers) [Example 160]
6.58 | CS(=O)(=O)c1ccc(O[C@@H]2CCOC2)c(C(=O)N2CC3CC3(c3noc(C(F)(F)F)n3)C2)c1 (mixture of isomers) [Example 138, [5-Methanesulfonyl-2-(tetrahydro-furan-3-yloxy)-phenyl]-[1-(5-trifluoromethyl-[1,2,4]oxadiazol-3-yl)-3-aza-bicyclo[3.1.0]hex-3-yl]-methanone]
6.41 | Cc1c(C23CC2CN(C(=O)c2cc(S(C)(=O)=O)ccc2O[C@H](C)C(F)(F)F)C3)noc1C(F)(F)F (single isomer, unassigned) [Example 162]
7.74 | C[C@H](Oc1ccc(S(C)(=O)=O)cc1C(=O)N1CC2CC2(c2noc(C3CC3)n2)C1)C(F)(F)F (mixture of isomers) [Example 9, [1-(5-Cyclopropyl-[1,2,4]oxadiazol-3-yl)-3-aza-bicyclo[3.1.0]hex-3-yl]-[5-methanesulfonyl-2-(2,2,2-trifluoro-1-methyl-ethoxy)-phenyl]-methanone]
8.30 | CCS(=O)(=O)c1ccc(O[C@H](C)C(F)(F)F)c(C(=O)N2CC3CC3(c3cc(C(F)(F)F)on3)C2)c1 (single isomer, unassigned) [Example 107, [5-Ethanesulfonyl-2-(2,2,2-trifluoro-1-methyl-ethoxy)-phenyl]-[1-(5-trifluoromethyl-isoxazol-3-yl)-3-aza-bicyclo[3.1.0]hex-3-yl]-methanone]
6.80 | C[C@H](Oc1ccc(S(C)(=O)=O)cc1C(=O)N1CC2CC2(c2nccc(C(F)(F)F)n2)C1)C(F)(F)F (single isomer, unassigned) [Example 17, [5-Methanesulfonyl-2-(2,2,2-trifluoro-1-methyl-ethoxy)-phenyl]-[1-(4-trifluoromethyl-pyrimidin-2-yl)-3-aza-bicyclo[3.1.0]hex-3-yl]-methanone]
6.00 | C[C@@H](Oc1ccc(S(C)(=O)=O)cc1C(=O)N1CC2CC2(c2csc(C(F)(F)F)n2)C1)C(F)(F)F (single isomer, unassigned) [Example 31, [5-Methanesulfonyl-2-(2,2,2-trifluoro-1-methyl-ethoxy)-phenyl]-[1-(2-trifluoromethyl-thiazol-4-yl)-3-aza-bicyclo[3.1.0]hex-3-yl]-methanone]
7.74 | C[C@H](Oc1ccc(S(C)(=O)=O)cc1C(=O)N1CC2CC2(c2nnc(C3CC3)o2)C1)C(F)(F)F (mixture of isomers) [Example 147, [1-(5-Cyclopropyl-[1,3,4]oxadiazol-2-yl)-3-aza-bicyclo[3.1.0]hex-3-yl]-[5-methanesulfonyl-2-(2,2,2-trifluoro-1-methyl-ethoxy)-phenyl]-methanone]
